We go through eleven compounds from patent publication US11208386B2, “Inhibitors of protein arginine deiminases (PADs) and methods of preparation and use thereof” (University of Massachusetts, priority 2016, dated 2021).

Type in all cases: biochemical
The target in one assay is T1, PAD2 (Homo sapiens, UniProt Q9Y2J8).
T1 construct: made in house
Kind of assay: Inactivation kinetics, PAD2. Conditions: for kinact/KI: a: single kobs determined, b: from a linear fit, other footnotes: from kinact and KI; for Fold PAD2 Selectivity: kinact/KI relative to least inhibited isozyme (1.0). The essentials: (§1)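 PAD1, 2 or 4 (2.0 μM) or PAD3 (5.0 μM) preincubated at 37 °C with varying inhibitor in 50 mM HEPES, 10 mM CaCl2, 2 mM DTT, pH 7.6. Timed aliquots assayed 15 min with 10 mM BAEE (BAA for PAD3); citrulline quantified by COLDER.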

The target in a further assay is T2, PAD1 (Homo sapiens, UniProt Q9ULC6).
T2 construct: made in house
T2 sequence (Q9ULC6 1-663): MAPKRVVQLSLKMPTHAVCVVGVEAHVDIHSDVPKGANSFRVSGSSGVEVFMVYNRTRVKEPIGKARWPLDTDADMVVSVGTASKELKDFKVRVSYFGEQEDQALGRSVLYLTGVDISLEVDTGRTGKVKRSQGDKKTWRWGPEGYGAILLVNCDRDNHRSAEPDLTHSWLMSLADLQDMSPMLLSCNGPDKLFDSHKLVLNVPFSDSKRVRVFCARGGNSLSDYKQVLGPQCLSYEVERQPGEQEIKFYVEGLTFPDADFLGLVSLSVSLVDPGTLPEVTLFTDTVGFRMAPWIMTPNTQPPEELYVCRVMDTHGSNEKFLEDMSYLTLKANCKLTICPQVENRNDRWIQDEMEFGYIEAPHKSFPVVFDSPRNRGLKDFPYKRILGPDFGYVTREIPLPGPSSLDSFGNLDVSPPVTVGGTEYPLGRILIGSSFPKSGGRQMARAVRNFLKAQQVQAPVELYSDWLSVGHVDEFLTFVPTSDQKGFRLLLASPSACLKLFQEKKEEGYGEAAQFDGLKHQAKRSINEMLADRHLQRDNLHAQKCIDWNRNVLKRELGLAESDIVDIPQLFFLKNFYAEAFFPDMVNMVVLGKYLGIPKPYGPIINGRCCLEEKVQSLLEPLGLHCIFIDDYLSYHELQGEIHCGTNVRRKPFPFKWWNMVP
Nature of the assay: Inactivation kinetics, PAD1. Conditions: for kinact/KI: a: single kobs determined, b: from a linear fit; for Fold PAD1 Selectivity: kinact/KI relative to least inhibited isozyme (1.0). An outline of the steps:
as §1

The next assay deals with T3, PAD3 (Homo sapiens, UniProt Q9ULW8).
T3 construct: made in house
T3 sequence (Q9ULW8 1-664): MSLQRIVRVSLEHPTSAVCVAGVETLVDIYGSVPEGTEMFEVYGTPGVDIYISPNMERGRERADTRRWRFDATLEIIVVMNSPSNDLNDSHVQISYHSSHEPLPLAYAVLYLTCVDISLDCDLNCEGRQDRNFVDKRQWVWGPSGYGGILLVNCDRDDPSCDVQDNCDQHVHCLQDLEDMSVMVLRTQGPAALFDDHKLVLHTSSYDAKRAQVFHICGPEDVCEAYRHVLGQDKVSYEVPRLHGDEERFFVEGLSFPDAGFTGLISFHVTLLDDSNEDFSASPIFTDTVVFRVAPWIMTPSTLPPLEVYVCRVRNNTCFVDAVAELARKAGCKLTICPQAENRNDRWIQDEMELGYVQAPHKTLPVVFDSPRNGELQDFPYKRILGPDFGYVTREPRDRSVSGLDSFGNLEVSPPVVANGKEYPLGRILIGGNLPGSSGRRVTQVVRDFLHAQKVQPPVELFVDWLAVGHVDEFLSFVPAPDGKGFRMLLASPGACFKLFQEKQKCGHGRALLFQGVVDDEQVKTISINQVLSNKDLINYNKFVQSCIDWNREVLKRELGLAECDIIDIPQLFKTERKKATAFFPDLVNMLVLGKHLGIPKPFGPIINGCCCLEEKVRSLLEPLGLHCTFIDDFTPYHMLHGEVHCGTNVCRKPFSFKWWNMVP
Nature of the assay: Inactivation kinetics, PAD3. The conditions noted are these: for kinact/KI: a: single kobs determined; for Fold PAD3 Selectivity: kinact/KI relative to least inhibited isozyme (1.0). The essentials: as §1

The target in the next assay is T4, PAD4 (Homo sapiens, UniProt Q9UM07).
T4 construct: made in house
Nature of the assay: Inactivation kinetics, PAD4. The conditions noted are these: for kinact/KI: a: single kobs determined, b: from a linear fit; for Fold PAD4 Selectivity: kinact/KI relative to least inhibited isozyme (1.0). An outline of the steps: as §1

The structures appear in SMILES notation.

T1 sequence (Q9Y2J8 whole entry): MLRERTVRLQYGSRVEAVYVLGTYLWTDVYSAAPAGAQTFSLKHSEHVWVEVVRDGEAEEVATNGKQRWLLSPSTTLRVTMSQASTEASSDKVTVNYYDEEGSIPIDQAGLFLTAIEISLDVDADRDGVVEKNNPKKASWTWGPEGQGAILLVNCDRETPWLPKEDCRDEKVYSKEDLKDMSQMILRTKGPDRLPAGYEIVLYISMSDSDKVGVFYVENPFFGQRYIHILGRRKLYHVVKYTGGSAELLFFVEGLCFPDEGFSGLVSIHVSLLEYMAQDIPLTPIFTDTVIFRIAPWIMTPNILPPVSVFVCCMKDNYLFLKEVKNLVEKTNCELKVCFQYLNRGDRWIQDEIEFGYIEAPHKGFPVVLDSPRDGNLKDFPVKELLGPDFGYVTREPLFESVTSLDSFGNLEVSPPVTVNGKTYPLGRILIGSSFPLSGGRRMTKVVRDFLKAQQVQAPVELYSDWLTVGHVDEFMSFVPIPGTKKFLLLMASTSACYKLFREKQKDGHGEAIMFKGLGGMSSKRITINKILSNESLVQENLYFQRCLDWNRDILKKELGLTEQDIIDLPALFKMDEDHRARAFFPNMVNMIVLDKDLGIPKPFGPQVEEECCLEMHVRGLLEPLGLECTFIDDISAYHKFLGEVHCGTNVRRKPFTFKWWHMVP
T4 sequence (Q9UM07 whole entry): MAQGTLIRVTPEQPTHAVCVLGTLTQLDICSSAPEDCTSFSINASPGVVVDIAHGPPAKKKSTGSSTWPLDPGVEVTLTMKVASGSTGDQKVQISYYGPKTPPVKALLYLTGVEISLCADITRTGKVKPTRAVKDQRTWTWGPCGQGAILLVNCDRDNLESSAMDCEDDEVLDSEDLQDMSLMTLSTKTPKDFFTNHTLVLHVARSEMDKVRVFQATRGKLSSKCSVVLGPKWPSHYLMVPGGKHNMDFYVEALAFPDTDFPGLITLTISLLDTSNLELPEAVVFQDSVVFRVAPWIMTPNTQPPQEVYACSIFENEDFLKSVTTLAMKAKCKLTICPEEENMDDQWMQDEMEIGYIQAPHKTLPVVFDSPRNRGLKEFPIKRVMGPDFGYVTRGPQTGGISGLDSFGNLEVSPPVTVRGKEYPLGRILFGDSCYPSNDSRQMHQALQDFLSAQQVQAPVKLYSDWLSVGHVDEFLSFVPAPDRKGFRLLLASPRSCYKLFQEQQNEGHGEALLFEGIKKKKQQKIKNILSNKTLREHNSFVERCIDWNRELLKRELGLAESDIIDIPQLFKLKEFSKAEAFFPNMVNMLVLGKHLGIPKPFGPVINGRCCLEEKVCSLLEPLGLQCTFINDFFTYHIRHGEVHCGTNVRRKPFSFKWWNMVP

In the case of `COc1ccc2c(c1)nc([C@H](CCCNC(=N)CCl)NC(=O)c1cccc3c1C(=O)NC3)n2C` [Compound 7p, N1-(3-oxoisoindoline)benzoyl-N5-(2-chloro-1-iminoethyl)-1-(5-methoxy-1-methyl-benzo[d]imidazol-2-yl)-L-ornithine], on PAD2, the kinact/KI is 908 M⁻¹ s⁻¹ and the “Fold PAD2 Selectivity” value amounted to 10 fold. At PAD1, the kinact/KI was 2210 M⁻¹ s⁻¹ and the “Fold PAD1 Selectivity” value amounted to 25 fold. In addition, at PAD3, the kinact/KI was 218 M⁻¹ s⁻¹ and the “Fold PAD3 Selectivity” value is reported as 2.4 fold. Further, at PAD4, the kinact/KI was 90.2 M⁻¹ s⁻¹ and the “Fold PAD4 Selectivity” value was 1.0 fold.

As to `CCn1c([C@H](CCCNC(=N)CF)NC(=O)c2cccc3c2C(=O)NC3)nc2c(OC)cccc21` [Compound 7q, N1-(3-oxoisoindoline)benzoyl-N5-(2-fluoro-1-iminoethyl)-1-(4-methoxy-1-ethyl-benzo[d]imidazol-2-yl)-L-ornithine], at PAD2, the kinact/KI is 845 M⁻¹ s⁻¹ and the “Fold PAD2 Selectivity” value stood at 32 fold. For the same compound, on PAD1, the kinact/KI is 998 M⁻¹ s⁻¹ and the “Fold PAD1 Selectivity” value amounted to 38 fold. In addition, at PAD3, the kinact/KI is 26.7 M⁻¹ s⁻¹ and the “Fold PAD3 Selectivity” value is on record as 1.0 fold. At PAD4, the kinact/KI was 26.3 M⁻¹ s⁻¹ and the “Fold PAD4 Selectivity” value is on record as 1.0 fold.

Regarding `CCn1c([C@H](CCCNC(=N)CCl)NC(=O)c2cccc3c2C(=O)NC3)nc2c(OC)cccc21` [Compound 7r, N1-(3-oxoisoindoline)benzoyl-N5-(2-chloro-1-iminoethyl)-1-(4-methoxy-1-ethyl-benzo[d]imidazol-2-yl)-L-ornithine], on PAD2, the kinact/KI is 657 M⁻¹ s⁻¹ and the “Fold PAD2 Selectivity” value came out at 19 fold. Also, on PAD1, the kinact/KI was 1790 M⁻¹ s⁻¹ and the “Fold PAD1 Selectivity” value is on record as 50 fold. Moreover, on PAD3, the kinact/KI was 103 M⁻¹ s⁻¹ and the “Fold PAD3 Selectivity” value was 2.9 fold. At PAD4, the inactivation efficiency (kinact/KI) is 35.5 M⁻¹ s⁻¹ and the “Fold PAD4 Selectivity” value is recorded as 1.0 fold.

Turning to `COc1ccc2[nH]c([C@H](CCCNC(=N)CF)NC(=O)c3cccc4c3C(=O)NC4)nc2c1` [Compound 7s, N1-(3-oxoisoindoline)benzoyl-N5-(2-fluoro-1-iminoethyl)-1-(5-methoxy-1H-benzo[d]imidazol-2-yl)-L-ornithine], on PAD2, the inactivation efficiency (kinact/KI) was 415 M⁻¹ s⁻¹ and the “Fold PAD2 Selectivity” value came out at 5.4 fold. For the same compound, at PAD1, the kinact/KI is 974 M⁻¹ s⁻¹ and the “Fold PAD1 Selectivity” value is reported as 13 fold. Further, at PAD3, the second-order inactivation constant (kinact/KI) was 76.2 M⁻¹ s⁻¹ and the “Fold PAD3 Selectivity” value came to 1.0 fold. At PAD4, the kinact/KI is 264 M⁻¹ s⁻¹ and the “Fold PAD4 Selectivity” value was 3.5 fold.

On to `COc1ccc2[nH]c([C@H](CCCNC(=N)CCl)NC(=O)c3cccc4c3C(=O)NC4)nc2c1` [Compound 7t, N1-(3-oxoisoindoline)benzoyl-N5-(2-chloro-1-iminoethyl)-1-(5-methoxy-1H-benzo[d]imidazol-2-yl)-L-ornithine], for which, at PAD2, the kinact/KI is 1000 M⁻¹ s⁻¹ and the “Fold PAD2 Selectivity” value amounted to 3.5 fold. On PAD1, the kinact/KI was 2130 M⁻¹ s⁻¹ and the “Fold PAD1 Selectivity” value stood at 7.3 fold. For the same compound, on PAD3, the kinact/KI is 291 M⁻¹ s⁻¹ and the “Fold PAD3 Selectivity” value stood at 1.0 fold. For the same compound, on PAD4, the second-order inactivation constant (kinact/KI) is 630 M⁻¹ s⁻¹ and the “Fold PAD4 Selectivity” value stood at 2.2 fold.

On to `CCn1c([C@H](CCCNC(=N)CF)NC(=O)c2cccc3c2C(=O)NC3)nc2cc(OC)ccc21` [Compound 7u, N1-(3-oxoisoindoline)benzoyl-N5-(2-fluoro-1-iminoethyl)-1-(5-methoxy-1-ethyl-benzo[d]imidazol-2-yl)-L-ornithine], for which, at PAD2, the second-order inactivation constant (kinact/KI) is 658 M⁻¹ s⁻¹ and the “Fold PAD2 Selectivity” value is on record as 50 fold. At PAD1, the kinact/KI is 316 M⁻¹ s⁻¹ and the “Fold PAD1 Selectivity” value is 24 fold. On PAD3, the kinact/KI is 33 M⁻¹ s⁻¹ and the “Fold PAD3 Selectivity” value was 2.5 fold. Moreover, on PAD4, the kinact/KI was 13.2 M⁻¹ s⁻¹ and the “Fold PAD4 Selectivity” value came to 1.0 fold.

Turning to `CCn1c([C@H](CCCNC(=N)CCl)NC(=O)c2cccc3c2C(=O)NC3)nc2cc(OC)ccc21` [Compound 7v, N1-(3-oxoisoindoline)benzol-N5-(2-chloro-1-iminoethyl)-1-(5-methoxy-1-ethyl-benzo[d]imidazol-2-yl)-L-ornithine], at PAD2, the kinact/KI was 780 M⁻¹ s⁻¹ and the “Fold PAD2 Selectivity” value is on record as 16 fold. Also, on PAD1, the kinact/KI was 1010 M⁻¹ s⁻¹ and the “Fold PAD1 Selectivity” value is recorded as 21 fold. Further, on PAD3, the second-order inactivation constant (kinact/KI) is 214 M⁻¹ s⁻¹ and the “Fold PAD3 Selectivity” value came to 4.4 fold. Also, at PAD4, the second-order inactivation constant (kinact/KI) was 48.8 M⁻¹ s⁻¹ and the “Fold PAD4 Selectivity” value was 1.0 fold.

On to `CCN1Cc2cccc(C(=O)N[C@@H](CCCNC(=N)CF)c3nc4ccccc4[nH]3)c2C1=O` [Compound 8a, N1-(2-ethyl-3-oxoisoindoline)benzol-N5-(2-fluoro-1-iminoethyl)-1-(1H-benzo[d]imidazol-2-yl)-L-ornithine], for which, on PAD2, the kinact/KI was 240 M⁻¹ s⁻¹ and the “Fold PAD2 Selectivity” value is on record as 1.0 fold. Moreover, on PAD1, the inactivation efficiency (kinact/KI) was 807 M⁻¹ s⁻¹ and the “Fold PAD1 Selectivity” value turned out to be 3.4 fold. Also, on PAD3, the inactivation efficiency (kinact/KI) was 248 M⁻¹ s⁻¹ and the “Fold PAD3 Selectivity” value is 1.0 fold. Also, at PAD4, the kinact/KI is 248 M⁻¹ s⁻¹ and the “Fold PAD4 Selectivity” value is listed as 1.0 fold.

For the compound `CCN1Cc2cccc(C(=O)N[C@@H](CCCNC(=N)CCl)c3nc4ccccc4[nH]3)c2C1=O` [Compound 8b, N1-(2-ethyl-3-oxoisoindoline)benzol-N5-(2-chloro-1-iminoethyl)-1-(1H-benzo[d]imidazol-2-yl)-L-ornithine], at PAD2, the kinact/KI was 888 M⁻¹ s⁻¹ and the “Fold PAD2 Selectivity” value was determined as 1.5 fold. Moreover, at PAD1, the kinact/KI is 2530 M⁻¹ s⁻¹ and the “Fold PAD1 Selectivity” value amounted to 4.3 fold. Moreover, at PAD3, the kinact/KI is 583 M⁻¹ s⁻¹ and the “Fold PAD3 Selectivity” value is 1.0 fold. For the same compound, on PAD4, the kinact/KI was 810 M⁻¹ s⁻¹ and the “Fold PAD4 Selectivity” value was 1.4 fold.

Consider `CCN1Cc2cccc(C(=O)N[C@@H](CCCNC(=N)CF)c3nc4ccccc4n3C)c2C1=O` [Compound 8c, N1-(2-ethyl-3-oxoisoindoline)benzoyl-N5-(2-fluoro-1-iminoethyl)-1-(1-methyl-benzo[d]imidazol-2-yl)-L-ornithine], for which, on PAD2, the kinact/KI is 546 M⁻¹ s⁻¹ and the “Fold PAD2 Selectivity” value came out at 11 fold. At PAD1, the kinact/KI is 308 M⁻¹ s⁻¹ and the “Fold PAD1 Selectivity” value amounted to 6.1 fold. Besides, at PAD3, the kinact/KI was 95.8 M⁻¹ s⁻¹ and the “Fold PAD3 Selectivity” value is 1.9 fold. Further, at PAD4, the kinact/KI is 50.5 M⁻¹ s⁻¹ and the “Fold PAD4 Selectivity” value was 1.0 fold.

As to `CCN1Cc2cccc(C(=O)N[C@@H](CCCNC(=N)CCl)c3nc4ccccc4n3C)c2C1=O` [Compound 8d, N1-(2-ethyl-3-oxoisoindoline)benzoyl-N5-(2-chloro-1-iminoethyl)-1-(1-methyl-benzo[d]imidazol-2-yl)-L-ornithine], on PAD2, the kinact/KI was 1190 M⁻¹ s⁻¹ and the “Fold PAD2 Selectivity” value amounted to 19 fold. For the same compound, at PAD1, the kinact/KI was 1320 M⁻¹ s⁻¹ and the “Fold PAD1 Selectivity” value was 21 fold. Moreover, at PAD3, the kinact/KI was 62.8 M⁻¹ s⁻¹ and the “Fold PAD3 Selectivity” value was determined as 1.0 fold. Further, on PAD4, the kinact/KI is 75.7 M⁻¹ s⁻¹ and the “Fold PAD4 Selectivity” value amounted to 1.2 fold.
